From the NIST ThermoML archive (doi:10.1016/j.jct.2019.02.022)

Experiment: xn = mol fraction of the nth substance listed
Settings: Liquid, Gas absorption technique

Question: With `CCn1cc[n+](C)c1.O=S(=O)([N-]S(=O)(=O)C(F)(F)F)C(F)(F)F` + O=C=O as the compound, how does the binary diffusion coefficient (303.15 K, 111.3 kPa, x2 = 0) read?
Answer: Its binary diffusion coefficient is 6.15e-10 m2/s.

Question: And the binary diffusion coefficient (313.15 K, 113.7 kPa, x2 = 0)?
Answer: The binary diffusion coefficient was 7.22e-10 m2/s.

Question: What about the binary diffusion coefficient (323.15 K, 108.4 kPa, x2 = 0) of the same compound?
Answer: Its binary diffusion coefficient is 9.52e-10 m2/s.

Question: And the binary diffusion coefficient (333.15 K, 113.2 kPa, x2 = 0)?
Answer: Its binary diffusion coefficient is 1.19e-09 m2/s.

Question: What about the binary diffusion coefficient (343.15 K, 113.7 kPa, x2 = 0) of the same compound?
Answer: Its binary diffusion coefficient is 1.56e-09 m2/s.

Question: Which binary diffusion coefficient (303.15 K, 106.2 kPa, x2 = 0) does the source give for `Cn1cc[n+](CCO)c1.O=S(=O)([N-]S(=O)(=O)C(F)(F)F)C(F)(F)F` + O=C=O here?
Answer: The binary diffusion coefficient was 1.31e-10 m2/s.

Question: And the binary diffusion coefficient (313.15 K, 109.9 kPa, x2 = 0)?
Answer: Its binary diffusion coefficient is 2.67e-10 m2/s.

Question: And the binary diffusion coefficient (323.15 K, 111.2 kPa, x2 = 0)?
Answer: The binary diffusion coefficient was 3.97e-10 m2/s.

Question: With `Cn1cc[n+](CCO)c1.O=S(=O)([N-]S(=O)(=O)C(F)(F)F)C(F)(F)F` + S as the compound, how does the binary diffusion coefficient (303.15 K, 111.7 kPa, x2 = 0) read?
Answer: The binary diffusion coefficient was 2.07e-10 m2/s.

Question: What about the binary diffusion coefficient (313.15 K, 113.9 kPa, x2 = 0) of the same compound?
Answer: The binary diffusion coefficient was 3.35e-10 m2/s.

Question: What about the binary diffusion coefficient (323.15 K, 114.5 kPa, x2 = 0) of the same compound?
Answer: The binary diffusion coefficient was 5.51e-10 m2/s.

Question: With `Cn1cc[n+](CCO)c1.O=S(=O)([O-])C(F)(F)F` + S as the compound, how does the binary diffusion coefficient (303.15 K, 107 kPa, x2 = 0) read?
Answer: The binary diffusion coefficient was 2.28e-10 m2/s.

Question: What about the binary diffusion coefficient (313.15 K, 109.6 kPa, x2 = 0) of the same compound?
Answer: The binary diffusion coefficient was 2.93e-10 m2/s.

Question: What about the binary diffusion coefficient (323.15 K, 113.9 kPa, x2 = 0) of the same compound?
Answer: The binary diffusion coefficient was 3.66e-10 m2/s.

Question: For `Cn1cc[n+](CCO)c1.F[P-](F)(F)(F)(F)F` [3-(2-hydroxyethyl)-1-methylimidazolium hexafluorophosphate] + O=C=O, which binary diffusion coefficient (303.15 K, 105.6 kPa, x2 = 0) is on record?
Answer: Its binary diffusion coefficient is 1.39e-10 m2/s.

Question: And the binary diffusion coefficient (313.15 K, 109.3 kPa, x2 = 0)?
Answer: Its binary diffusion coefficient is 2.15e-10 m2/s.

Question: What about the binary diffusion coefficient (323.15 K, 110.6 kPa, x2 = 0) of the same compound?
Answer: Its binary diffusion coefficient is 2.7e-10 m2/s.

Question: What does the source list for `Cn1cc[n+](CCO)c1.F[P-](F)(F)(F)(F)F` [3-(2-hydroxyethyl)-1-methylimidazolium hexafluorophosphate] + S?
Answer: binary diffusion coefficient (303.15 K, 111.3 kPa, x2 = 0): 1.55e-10 m2/s; binary diffusion coefficient (313.15 K, 113.7 kPa, x2 = 0): 2.37e-10 m2/s; binary diffusion coefficient (323.15 K, 108.4 kPa, x2 = 0): 3.74e-10 m2/s

Question: Which binary diffusion coefficient (303.15 K, 109.8 kPa, x1 = 0) does the source give for `S` [hydrogen sulfide] + CCn1cc[n+](C)c1.O=S(=O)([N-]S(=O)(=O)C(F)(F)F)C(F)(F)F here?
Answer: Its binary diffusion coefficient is 7.98e-10 m2/s.

Question: And the binary diffusion coefficient (313.15 K, 108.6 kPa, x1 = 0)?
Answer: Its binary diffusion coefficient is 9.06e-10 m2/s.

Question: And the binary diffusion coefficient (323.15 K, 109.4 kPa, x1 = 0)?
Answer: Its binary diffusion coefficient is 1.17e-09 m2/s.
